Experimental data taken from patent publication US10738028B2, “Spiro three-membered ring, spiro five-membered ring peptide deformylase inhibitor and use thereof in antibacteria and anti-tumor” (priority 2016, dated 2020).
Converted amounts (≈) assume the structure as drawn.

Key:
Format in all cases: cell-based
[1] = tested on: Enterococcus faecalis (EFA); experiment: MIC, two-fold agar dilution (CLSI), clinical isolates
From the text: (§1) 1. The invention adopts the two-fold agar dilution method recommended by the operating procedure of antimicrobial susceptibility testing set by American Clinical and Laboratory Standards Institute (CLSI) to determine the Minimum Inhibitory Concentration (MIC) of the test samples against the tested strains.

[2] = tested on: Enterococcus faecium (EFM); experiment: as above
From the text: as §1

[3] = tested on: Escherichia coli (including ESBLs, non-ESBLs); experiment: as above
From the text: as §1

[4] = tested on: Moraxella catarrhalis (BCA); experiment: as above; conditions: for Anti-bacterial activity (MIC), strain BCA 14-10: clinical isolate BCA 14-10
From the text: as §1

[5] = tested on: Streptococcus pneoumoniae (SPN); experiment: as above
From the text: as §1

[6] = tested on: methicillin-resistant Staphylococcus aureus (MRSA); experiment: as above
From the text: as §1

[7] = tested on: methicillin-resistant Staphylococcus epidermidis (MRSE); experiment: as above
From the text: as §1

[8] = tested on: methicillin-sensitive Staphylococcus aureus (MSSA); experiment: as above
From the text: as §1

[9] = tested on: methicillin-sensitive Staphylococcus epidermidis (MSSE); experiment: as above
From the text: as §1

[10] = tested on: HCT-116 colorectal cancer cell line; experiment: CCK-8 proliferation inhibition; conditions: Homo sapiens, HCT-116, 72 h, concentration of 30 μM; 72 hours; CCK-8; read-out: HCT116 inhibition rate/%
In short: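 Cells seeded at 2000 cells/well, cultured overnight at 37 °C, 5% CO2, then exposed to compound (DMSO; control 1‰ DMSO) for 72 h in McCoy's 5A with 10% newborn bovine serum. Viability read with 1:10 diluted CCK-8.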

## O=CN(O)C[C@@H](CC1CCCC1)C(=O)N1CC2(CC2)C[C@H]1C(=O)Nc1ccc(F)cn1 [Example 28]
[1]; strain EFA 15-1
  MIC (anti-bacterial activity): 2 µg/mL (≈ 4.62 µM)
[1]; strain EFA 15-2
  MIC (anti-bacterial activity): 2 µg/mL (≈ 4.62 µM)
[1]; strain EFA 15-3
  MIC (anti-bacterial activity): 2 µg/mL (≈ 4.62 µM)
[1]; strain EFA 15-4
  MIC (anti-bacterial activity): 2 µg/mL (≈ 4.62 µM)
[1]; strain EFA 15-5
  MIC (anti-bacterial activity): 2 µg/mL (≈ 4.62 µM)
[1]; strain EFA 15-6
  MIC (anti-bacterial activity): 2 µg/mL (≈ 4.62 µM)
[1]; strain EFA 15-9
  MIC (anti-bacterial activity): 2 µg/mL (≈ 4.62 µM)
[2]; strain EFM 15-1
  MIC (anti-bacterial activity): 0.5 µg/mL (≈ 1.16 µM)
[2]; strain EFM 15-2
  MIC (anti-bacterial activity): 1 µg/mL (≈ 2.31 µM)
[2]; strain EFM 15-3
  MIC (anti-bacterial activity): 0.125 µg/mL (≈ 0.289 µM)
[2]; strain EFM 15-4
  MIC (anti-bacterial activity): 1 µg/mL (≈ 2.31 µM)
[2]; strain EFM 15-5
  MIC (anti-bacterial activity): 1 µg/mL (≈ 2.31 µM)
[2]; strain EFM 15-6
  MIC (anti-bacterial activity): 1 µg/mL (≈ 2.31 µM)
[3]; strain ECO+ 15-1
  MIC (anti-bacterial activity): 16 µg/mL (≈ 37 µM)
[3]; strain ECO+ 15-2
  MIC (anti-bacterial activity): 64 µg/mL (≈ 148 µM)
[3]; strain ECO+ 15-3
  MIC (anti-bacterial activity): 64 µg/mL (≈ 148 µM)
[3]; strain ECO+ 15-4
  MIC (anti-bacterial activity): 32 µg/mL (≈ 74 µM)
[3]; strain ECO− 15-1
  MIC (anti-bacterial activity): 32 µg/mL (≈ 74 µM)
[3]; strain ECO− 15-2
  MIC (anti-bacterial activity): 32 µg/mL (≈ 74 µM)
[3]; strain ECO− 15-3
  MIC (anti-bacterial activity): 64 µg/mL (≈ 148 µM)
[3]; strain ECO− 15-4
  MIC (anti-bacterial activity): 64 µg/mL (≈ 148 µM)
[4]
  Anti-bacterial activity (MIC), strain BCA 14-10: 0.25 µg/mL
[4]; strain BCA 14-1
  MIC (anti-bacterial activity): 1 µg/mL (≈ 2.31 µM)
[4]; strain BCA 14-4
  MIC (anti-bacterial activity): 1 µg/mL (≈ 2.31 µM)
[4]; strain BCA 14-5
  MIC (anti-bacterial activity): 0.25 µg/mL (≈ 0.578 µM)
[4]; strain BCA 14-6
  MIC (anti-bacterial activity): 1 µg/mL (≈ 2.31 µM)
[4]; strain BCA 14-7
  MIC (anti-bacterial activity): 0.125 µg/mL (≈ 0.289 µM)
[4]; strain BCA 14-8
  MIC (anti-bacterial activity): 0.5 µg/mL (≈ 1.16 µM)
[5]; strain SPN 16-4
  MIC (anti-bacterial activity): 1 µg/mL (≈ 2.31 µM)
[6]; strain MRSA 15-1
  MIC (anti-bacterial activity): 0.125 µg/mL (≈ 0.289 µM)
[6]; strain MRSA 15-2
  MIC (anti-bacterial activity): 0.125 µg/mL (≈ 0.289 µM)
[6]; strain MRSA 15-3
  MIC (anti-bacterial activity): 0.125 µg/mL (≈ 0.289 µM)
[6]; strain MRSA 15-4
  MIC (anti-bacterial activity): 0.125 µg/mL (≈ 0.289 µM)
[7]; strain MRSE 15-1
  MIC (anti-bacterial activity): 0.125 µg/mL (≈ 0.289 µM)
[7]; strain MRSE 15-2
  MIC (anti-bacterial activity): 0.5 µg/mL (≈ 1.16 µM)
[7]; strain MRSE 15-3
  MIC (anti-bacterial activity): 0.5 µg/mL (≈ 1.16 µM)
[7]; strain MRSE 15-7
  MIC (anti-bacterial activity): 0.5 µg/mL (≈ 1.16 µM)
[8]; strain MSSA 15-3
  MIC (anti-bacterial activity): 0.125 µg/mL (≈ 0.289 µM)
[8]; strain MSSA 15-4
  MIC (anti-bacterial activity): 0.125 µg/mL (≈ 0.289 µM)
[8]; strain MSSA 15-5
  MIC (anti-bacterial activity): 0.125 µg/mL (≈ 0.289 µM)
[8]; strain MSSA 15-6
  MIC (anti-bacterial activity): 0.125 µg/mL (≈ 0.289 µM)
[9]; strain MSSE 15-3
  MIC (anti-bacterial activity): 0.125 µg/mL (≈ 0.289 µM)
[9]; strain MSSE 15-4
  MIC (anti-bacterial activity): 0.125 µg/mL (≈ 0.289 µM)
[9]; strain MSSE 15-5
  MIC (anti-bacterial activity): 0.125 µg/mL (≈ 0.289 µM)
[9]; strain MSSE 15-6
  MIC (anti-bacterial activity): 0.06 µg/mL (≈ 0.139 µM)
[10]
  inhibition at 30 µM: 21%

## O=CN(O)C[C@@H](CC1CCCC1)C(=O)N1CC2(CC2)C[C@H]1C(=O)Nc1ncccc1F [Example 30, (S)-5-((R)-3-cyclopentyl-2-((N-hydroxyformamido)methyl)propionyl)-N-(3-fluoropyridin-2-yl)-5-spiro[2.4]heptane-6-carboxamide]
[1]; strain EFA 15-1
  MIC (anti-bacterial activity): 4 µg/mL (≈ 9.25 µM)
[1]; strain EFA 15-2
  MIC (anti-bacterial activity): 4 µg/mL (≈ 9.25 µM)
[1]; strain EFA 15-3
  MIC (anti-bacterial activity): 4 µg/mL (≈ 9.25 µM)
[1]; strain EFA 15-4
  MIC (anti-bacterial activity): 4 µg/mL (≈ 9.25 µM)
[1]; strain EFA 15-5
  MIC (anti-bacterial activity): 4 µg/mL (≈ 9.25 µM)
[1]; strain EFA 15-6
  MIC (anti-bacterial activity): 2 µg/mL (≈ 4.62 µM)
[1]; strain EFA 15-9
  MIC (anti-bacterial activity): 8 µg/mL (≈ 18.5 µM)
[2]; strain EFM 15-1
  MIC (anti-bacterial activity): 2 µg/mL (≈ 4.62 µM)
[2]; strain EFM 15-2
  MIC (anti-bacterial activity): 1 µg/mL (≈ 2.31 µM)
[2]; strain EFM 15-3
  MIC (anti-bacterial activity): 0.25 µg/mL (≈ 0.578 µM)
[2]; strain EFM 15-4
  MIC (anti-bacterial activity): 1 µg/mL (≈ 2.31 µM)
[2]; strain EFM 15-5
  MIC (anti-bacterial activity): 4 µg/mL (≈ 9.25 µM)
[2]; strain EFM 15-6
  MIC (anti-bacterial activity): 1 µg/mL (≈ 2.31 µM)
[3]; strain ECO+ 15-1
  MIC (anti-bacterial activity): 32 µg/mL (≈ 74 µM)
[3]; strain ECO+ 15-2
  MIC (anti-bacterial activity): > 32 µg/mL
[3]; strain ECO+ 15-3
  MIC (anti-bacterial activity): > 32 µg/mL
[3]; strain ECO+ 15-4
  MIC (anti-bacterial activity): > 32 µg/mL
[3]; strain ECO− 15-1
  MIC (anti-bacterial activity): > 32 µg/mL
[3]; strain ECO− 15-2
  MIC (anti-bacterial activity): > 32 µg/mL
[3]; strain ECO− 15-3
  MIC (anti-bacterial activity): > 32 µg/mL
[3]; strain ECO− 15-4
  MIC (anti-bacterial activity): > 32 µg/mL
[4]
  Anti-bacterial activity (MIC), strain BCA 14-10: 0.5 µg/mL
[4]; strain BCA 14-1
  MIC (anti-bacterial activity): 2 µg/mL (≈ 4.62 µM)
[4]; strain BCA 14-4
  MIC (anti-bacterial activity): 2 µg/mL (≈ 4.62 µM)
[4]; strain BCA 14-5
  MIC (anti-bacterial activity): 1 µg/mL (≈ 2.31 µM)
[4]; strain BCA 14-6
  MIC (anti-bacterial activity): 4 µg/mL (≈ 9.25 µM)
[4]; strain BCA 14-7
  MIC (anti-bacterial activity): 1 µg/mL (≈ 2.31 µM)
[4]; strain BCA 14-8
  MIC (anti-bacterial activity): 1 µg/mL (≈ 2.31 µM)
[5]; strain SPN 16-2
  MIC (anti-bacterial activity): 4 µg/mL (≈ 9.25 µM)
[5]; strain SPN 16-4
  MIC (anti-bacterial activity): 1 µg/mL (≈ 2.31 µM)
[6]; strain MRSA 15-1
  MIC (anti-bacterial activity): 0.5 µg/mL (≈ 1.16 µM)
[6]; strain MRSA 15-2
  MIC (anti-bacterial activity): 0.5 µg/mL (≈ 1.16 µM)
[6]; strain MRSA 15-3
  MIC (anti-bacterial activity): 0.5 µg/mL (≈ 1.16 µM)
[6]; strain MRSA 15-4
  MIC (anti-bacterial activity): 0.5 µg/mL (≈ 1.16 µM)
[7]; strain MRSE 15-1
  MIC (anti-bacterial activity): 0.5 µg/mL (≈ 1.16 µM)
[7]; strain MRSE 15-2
  MIC (anti-bacterial activity): 2 µg/mL (≈ 4.62 µM)
[7]; strain MRSE 15-3
  MIC (anti-bacterial activity): 2 µg/mL (≈ 4.62 µM)
[7]; strain MRSE 15-7
  MIC (anti-bacterial activity): 2 µg/mL (≈ 4.62 µM)
[8]; strain MSSA 15-3
  MIC (anti-bacterial activity): 0.5 µg/mL (≈ 1.16 µM)
[8]; strain MSSA 15-4
  MIC (anti-bacterial activity): 0.5 µg/mL (≈ 1.16 µM)
[8]; strain MSSA 15-5
  MIC (anti-bacterial activity): 0.5 µg/mL (≈ 1.16 µM)
[8]; strain MSSA 15-6
  MIC (anti-bacterial activity): 0.5 µg/mL (≈ 1.16 µM)
[9]; strain MSSE 15-3
  MIC (anti-bacterial activity): 2 µg/mL (≈ 4.62 µM)
[9]; strain MSSE 15-4
  MIC (anti-bacterial activity): 2 µg/mL (≈ 4.62 µM)
[9]; strain MSSE 15-5
  MIC (anti-bacterial activity): 2 µg/mL (≈ 4.62 µM)
[9]; strain MSSE 15-6
  MIC (anti-bacterial activity): 0.5 µg/mL (≈ 1.16 µM)
[10]
  inhibition at 30 µM: 17%
